In brackets after ≈: the same amount, converted by molar mass.
What was measured:
[1] = biological target: NR1/NR2C (Rattus norvegicus, UniProt P35439+Q00961); experiment: Two-electrode voltage-clamp, recombinant NR1/NR2C in Xenopus oocytes; format: cell-based; conditions: for response at saturating concentration, NR2C (fitted minimum): fit with variable minimum
[2] = biological target: GluR1 (Rattus norvegicus, UniProt P19490); experiment: Two-electrode voltage-clamp, recombinant GluR1; format: cell-based
Chain of GluR1 (P19490 19-907): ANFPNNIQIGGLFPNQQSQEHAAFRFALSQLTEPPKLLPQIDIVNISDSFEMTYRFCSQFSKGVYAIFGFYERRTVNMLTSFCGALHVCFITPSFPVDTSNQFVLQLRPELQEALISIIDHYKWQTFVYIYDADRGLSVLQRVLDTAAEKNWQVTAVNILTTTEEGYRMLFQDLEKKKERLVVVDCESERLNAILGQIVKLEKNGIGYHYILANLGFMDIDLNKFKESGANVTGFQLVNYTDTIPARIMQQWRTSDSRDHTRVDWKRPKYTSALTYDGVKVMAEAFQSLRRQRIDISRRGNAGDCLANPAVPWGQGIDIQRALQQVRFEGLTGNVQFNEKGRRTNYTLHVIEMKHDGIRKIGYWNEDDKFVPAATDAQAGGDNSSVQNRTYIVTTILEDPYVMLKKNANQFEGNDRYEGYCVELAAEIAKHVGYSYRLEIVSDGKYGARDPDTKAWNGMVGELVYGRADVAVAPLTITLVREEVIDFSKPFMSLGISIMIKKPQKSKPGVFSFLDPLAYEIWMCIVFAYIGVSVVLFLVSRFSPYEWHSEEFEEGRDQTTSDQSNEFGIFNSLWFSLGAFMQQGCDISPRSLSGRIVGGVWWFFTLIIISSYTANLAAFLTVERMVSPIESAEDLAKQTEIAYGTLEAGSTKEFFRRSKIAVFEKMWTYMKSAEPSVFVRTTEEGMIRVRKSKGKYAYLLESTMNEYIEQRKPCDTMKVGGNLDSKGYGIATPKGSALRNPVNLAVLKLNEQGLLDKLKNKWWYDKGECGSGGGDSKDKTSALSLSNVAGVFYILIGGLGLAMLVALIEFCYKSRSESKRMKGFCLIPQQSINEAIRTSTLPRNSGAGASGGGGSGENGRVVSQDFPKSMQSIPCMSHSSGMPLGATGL

[3] = biological target: NR1/NR2D (Rattus norvegicus, UniProt P35439+Q62645); experiment: Two-electrode voltage-clamp, recombinant NR1/NR2D in Xenopus oocytes; format: cell-based; conditions: for GluR1/NR2D: (IC50 GluR1)/(IC50 NR2D) / NR2A/NR2D: (IC50 NR2A)/(IC50 NR2D): selectivity ratio; for response at saturating concentration, NR2D (fitted minimum): fit with variable minimum
[4] = biological target: GluR6 (Rattus norvegicus, UniProt P42260); experiment: Two-electrode voltage-clamp, recombinant GluR6; format: cell-based; conditions: 30 μM compound
[5] = biological target: NR1/NR2A (Rattus norvegicus, UniProt P35439+Q00959); experiment: Two-electrode voltage-clamp, recombinant NR1/NR2A in Xenopus oocytes; format: cell-based; conditions: for response at saturating concentration, NR2A (fitted minimum): fit with variable minimum, predicted
Chain of NR1/NR2A (Q00959 23-1464, other chains not shown): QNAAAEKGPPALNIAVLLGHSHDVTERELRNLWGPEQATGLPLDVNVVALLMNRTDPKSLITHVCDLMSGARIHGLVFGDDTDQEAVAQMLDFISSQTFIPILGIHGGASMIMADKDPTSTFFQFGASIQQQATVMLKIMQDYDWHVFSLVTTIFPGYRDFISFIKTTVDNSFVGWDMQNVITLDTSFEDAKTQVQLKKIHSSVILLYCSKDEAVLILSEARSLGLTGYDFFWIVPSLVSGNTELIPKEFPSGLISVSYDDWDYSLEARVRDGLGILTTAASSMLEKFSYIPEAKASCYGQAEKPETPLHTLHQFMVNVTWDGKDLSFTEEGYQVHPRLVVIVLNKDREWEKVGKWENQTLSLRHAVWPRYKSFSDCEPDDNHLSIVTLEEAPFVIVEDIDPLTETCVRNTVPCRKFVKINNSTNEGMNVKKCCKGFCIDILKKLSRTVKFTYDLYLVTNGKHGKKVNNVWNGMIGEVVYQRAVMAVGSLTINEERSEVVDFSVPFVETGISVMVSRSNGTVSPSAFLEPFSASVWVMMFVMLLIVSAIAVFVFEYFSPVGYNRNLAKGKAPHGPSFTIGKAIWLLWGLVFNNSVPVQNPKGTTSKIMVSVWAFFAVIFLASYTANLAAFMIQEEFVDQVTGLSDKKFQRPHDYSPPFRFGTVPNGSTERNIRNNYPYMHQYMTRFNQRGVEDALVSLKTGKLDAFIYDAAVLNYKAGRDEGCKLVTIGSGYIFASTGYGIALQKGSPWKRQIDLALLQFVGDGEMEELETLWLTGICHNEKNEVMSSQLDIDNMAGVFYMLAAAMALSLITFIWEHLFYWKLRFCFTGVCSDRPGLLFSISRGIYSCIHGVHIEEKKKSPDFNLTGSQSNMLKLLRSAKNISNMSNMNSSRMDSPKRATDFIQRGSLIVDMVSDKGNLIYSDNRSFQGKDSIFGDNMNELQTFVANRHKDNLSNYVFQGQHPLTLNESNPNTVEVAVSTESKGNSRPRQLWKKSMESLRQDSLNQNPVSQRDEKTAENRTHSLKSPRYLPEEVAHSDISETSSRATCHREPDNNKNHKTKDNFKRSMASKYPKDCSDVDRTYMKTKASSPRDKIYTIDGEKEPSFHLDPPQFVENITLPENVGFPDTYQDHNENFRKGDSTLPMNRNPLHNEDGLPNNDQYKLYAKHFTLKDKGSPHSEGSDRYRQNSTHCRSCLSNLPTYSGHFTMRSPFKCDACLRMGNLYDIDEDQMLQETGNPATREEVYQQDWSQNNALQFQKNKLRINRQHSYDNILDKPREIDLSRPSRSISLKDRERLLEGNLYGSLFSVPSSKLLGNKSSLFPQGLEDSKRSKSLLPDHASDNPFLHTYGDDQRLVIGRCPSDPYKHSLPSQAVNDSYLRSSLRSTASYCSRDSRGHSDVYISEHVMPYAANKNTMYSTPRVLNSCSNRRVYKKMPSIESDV

[6] = biological target: NR1/NR2B (Rattus norvegicus, UniProt P35439+Q00960); experiment: Two-electrode voltage-clamp, recombinant NR1/NR2B in Xenopus oocytes; format: cell-based; conditions: for response at saturating concentration, NR2B (fitted minimum): fit with variable minimum, predicted
Chain of NR1/NR2B (Q00960 27-1482, other chains not shown): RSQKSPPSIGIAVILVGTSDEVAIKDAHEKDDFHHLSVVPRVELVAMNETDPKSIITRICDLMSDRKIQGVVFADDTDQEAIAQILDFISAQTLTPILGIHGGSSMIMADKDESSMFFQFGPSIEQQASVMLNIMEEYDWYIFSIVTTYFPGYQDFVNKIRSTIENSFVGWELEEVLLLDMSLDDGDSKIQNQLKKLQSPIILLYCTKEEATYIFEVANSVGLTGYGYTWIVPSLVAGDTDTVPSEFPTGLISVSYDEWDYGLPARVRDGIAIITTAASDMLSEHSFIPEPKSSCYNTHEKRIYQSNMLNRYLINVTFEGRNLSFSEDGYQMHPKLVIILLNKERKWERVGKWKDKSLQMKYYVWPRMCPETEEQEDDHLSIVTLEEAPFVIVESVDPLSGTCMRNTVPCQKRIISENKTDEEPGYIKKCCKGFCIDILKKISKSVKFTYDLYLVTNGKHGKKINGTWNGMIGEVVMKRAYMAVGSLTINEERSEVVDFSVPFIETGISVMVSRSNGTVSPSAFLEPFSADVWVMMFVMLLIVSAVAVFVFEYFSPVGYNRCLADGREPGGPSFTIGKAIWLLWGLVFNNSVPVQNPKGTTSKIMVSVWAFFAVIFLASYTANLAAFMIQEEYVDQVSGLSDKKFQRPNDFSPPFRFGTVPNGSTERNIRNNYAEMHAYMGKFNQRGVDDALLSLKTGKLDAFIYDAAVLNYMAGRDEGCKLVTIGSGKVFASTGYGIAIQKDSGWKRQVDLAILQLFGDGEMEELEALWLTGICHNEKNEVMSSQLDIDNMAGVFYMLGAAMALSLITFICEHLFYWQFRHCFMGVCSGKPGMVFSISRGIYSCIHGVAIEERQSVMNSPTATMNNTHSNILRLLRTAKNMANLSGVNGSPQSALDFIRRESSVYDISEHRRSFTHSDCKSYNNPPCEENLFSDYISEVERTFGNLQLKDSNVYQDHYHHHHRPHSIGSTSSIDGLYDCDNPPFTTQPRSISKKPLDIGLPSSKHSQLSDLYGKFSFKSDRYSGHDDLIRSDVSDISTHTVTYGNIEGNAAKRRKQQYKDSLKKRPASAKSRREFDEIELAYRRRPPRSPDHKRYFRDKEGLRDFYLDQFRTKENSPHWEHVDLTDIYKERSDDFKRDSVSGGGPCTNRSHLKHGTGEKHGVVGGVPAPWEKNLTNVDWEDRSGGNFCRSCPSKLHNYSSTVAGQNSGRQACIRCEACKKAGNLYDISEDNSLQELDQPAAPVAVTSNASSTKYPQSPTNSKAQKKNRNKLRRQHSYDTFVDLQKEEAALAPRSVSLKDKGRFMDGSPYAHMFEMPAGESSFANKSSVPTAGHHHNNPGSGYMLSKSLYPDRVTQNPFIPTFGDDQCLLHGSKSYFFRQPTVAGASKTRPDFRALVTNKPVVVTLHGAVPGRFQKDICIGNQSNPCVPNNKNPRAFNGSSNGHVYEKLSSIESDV

[7] = Maximum solubility by nephelometry; format: physicochemical; conditions: oocyte recording solution with 1% DMSO, aqueous buffer, kinetic from dmso stock

Chain of NR1/NR2C (Q00961 20-1237, other chains not shown): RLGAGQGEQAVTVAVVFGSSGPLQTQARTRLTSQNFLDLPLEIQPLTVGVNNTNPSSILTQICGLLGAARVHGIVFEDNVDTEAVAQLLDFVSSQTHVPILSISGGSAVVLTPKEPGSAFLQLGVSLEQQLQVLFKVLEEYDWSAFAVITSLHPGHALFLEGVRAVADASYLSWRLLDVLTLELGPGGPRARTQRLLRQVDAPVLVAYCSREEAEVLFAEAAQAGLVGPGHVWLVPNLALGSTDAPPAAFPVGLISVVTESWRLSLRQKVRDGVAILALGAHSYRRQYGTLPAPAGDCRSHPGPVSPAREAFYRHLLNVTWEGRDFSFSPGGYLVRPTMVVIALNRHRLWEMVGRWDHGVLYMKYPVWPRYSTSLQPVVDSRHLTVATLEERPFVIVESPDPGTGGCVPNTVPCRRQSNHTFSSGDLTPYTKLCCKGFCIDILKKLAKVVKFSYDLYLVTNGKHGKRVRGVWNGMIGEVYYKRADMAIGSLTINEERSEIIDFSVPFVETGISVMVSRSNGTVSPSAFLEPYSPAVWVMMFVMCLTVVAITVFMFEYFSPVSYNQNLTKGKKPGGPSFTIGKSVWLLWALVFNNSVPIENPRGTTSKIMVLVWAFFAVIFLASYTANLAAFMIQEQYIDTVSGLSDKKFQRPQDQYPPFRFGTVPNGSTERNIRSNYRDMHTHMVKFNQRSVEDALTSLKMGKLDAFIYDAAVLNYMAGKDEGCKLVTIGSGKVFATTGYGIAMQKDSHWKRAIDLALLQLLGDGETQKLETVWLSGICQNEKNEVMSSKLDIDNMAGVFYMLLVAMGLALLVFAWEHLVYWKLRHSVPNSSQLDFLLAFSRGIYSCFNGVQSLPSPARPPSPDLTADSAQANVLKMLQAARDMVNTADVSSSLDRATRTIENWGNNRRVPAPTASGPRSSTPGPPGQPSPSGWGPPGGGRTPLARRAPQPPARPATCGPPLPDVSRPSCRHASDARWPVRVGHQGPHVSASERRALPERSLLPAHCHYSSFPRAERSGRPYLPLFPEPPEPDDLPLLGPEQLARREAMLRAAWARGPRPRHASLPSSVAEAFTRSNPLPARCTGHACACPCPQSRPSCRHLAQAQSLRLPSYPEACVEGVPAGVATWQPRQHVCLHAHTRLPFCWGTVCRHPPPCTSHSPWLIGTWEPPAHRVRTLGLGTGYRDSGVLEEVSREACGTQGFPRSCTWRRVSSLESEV

O=C(O)c1ccc(-n2c(/C=C/c3cccc([N+](=O)[O-])c3)nc3ccccc3c2=O)cc1 [Compound 2, (E)-4-(2-(3-nitrostyryl)-4-oxoquinazolin-3(4H)-yl)benzoic acid]
extent of inhibition of NR1/NR2C responses [1]: completely
mode of inhibition at NR1/NR2C [1]: non-competitive
voltage dependence of inhibition at NR1/NR2C [1]: voltage-independent
fold more potent (lower fitted IC50) at NMDA receptors than AMPA receptors [2]: 4-5 fold
extent of inhibition of NR1/NR2D responses [3]: completely
voltage dependence of inhibition at NR1/NR2D ([3]; 10 μM compound, -40 mV vs +40 mV): voltage-independent
mode of inhibition at NR1/NR2D ([3]; 30 μM compound, glutamate/glycine raised from 100/30 μM to 1000/300 μM): non-competitive

COc1ccccc1-n1c(/C=C/c2ccccc2[N+](=O)[O-])nc2ccccc2c1=O [Compound 3, (E)-3-(2-methoxyphenyl)-2-(2-nitrostyryl)quinazolin-4(3H)-one]
extent of inhibition of NR1/NR2C responses [1]: completely
fold more potent (lower fitted IC50) at NMDA receptors than AMPA receptors [2]: 4-5 fold
extent of inhibition of NR1/NR2D responses [3]: completely

O=C(O)c1ccc(-n2c(/C=C/c3ccccc3)nc3ccccc3c2=O)cc1 [Compound 23]
IC50 [1]: 39 µM

COc1ccc(/C=C/c2nc3ccccc3c(=O)n2-c2ccc(C(=O)O)cc2)cc1 [Compound 24]
IC50 [1]: 42 µM

COc1cccc(/C=C/c2nc3ccccc3c(=O)n2-c2ccc(C(=O)O)cc2)c1 [Compound 25]
IC50 [1]: 17 µM

COc1ccccc1/C=C/c1nc2ccccc2c(=O)n1-c1ccc(C(=O)O)cc1 [Compound 26]
IC50 [1]: 32 µM

O=C(O)c1ccc(-n2c(/C=C/c3ccc(C(F)(F)F)cc3)nc3ccccc3c2=O)cc1 [Compound 27]
IC50 [1]: 23 µM

O=C(O)c1ccc(-n2c(/C=C/c3cccc(C(F)(F)F)c3)nc3ccccc3c2=O)cc1 [Compound 28]
IC50 [1]: 8 µM

O=C(O)c1ccc(-n2c(/C=C/c3ccccc3C(F)(F)F)nc3ccccc3c2=O)cc1 [Compound 29]
IC50 [1]: 88 µM
GluR1/NR2D: (IC50 GluR1)/(IC50 NR2D) [3]: >10
NR2A/NR2D: (IC50 NR2A)/(IC50 NR2D) [3]: >10

O=C(O)c1ccc(-n2c(/C=C/c3ccc(O)cc3)nc3ccccc3c2=O)cc1 [Compound 30]
IC50 [1]: 50 µM

Cc1ccc(/C=C/c2nc3ccccc3c(=O)n2-c2ccc(C(=O)O)cc2)cc1 [Compound 33]
IC50 [1]: 28 µM
GluR1/NR2D: (IC50 GluR1)/(IC50 NR2D) [3]: >17

Cc1cccc(/C=C/c2nc3ccccc3c(=O)n2-c2ccc(C(=O)O)cc2)c1 [Compound 34]
IC50 [1]: 28 µM
GluR1/NR2D: (IC50 GluR1)/(IC50 NR2D) [3]: >16

O=C(O)c1ccc(-n2c(/C=C/c3cccc([N+](=O)[O-])c3)nc3cccc(Cl)c3c2=O)cc1 [Compound 36, (E)-4-(5-chloro-2-(3-nitrostyryl)-4-oxoquinazolin-3(4H)-yl)benzoic acid]
GluR1/NR2D: (IC50 GluR1)/(IC50 NR2D) [3]: >20
NR2A/NR2D: (IC50 NR2A)/(IC50 NR2D) [3]: >20

O=C(O)c1ccc(-n2c(/C=C/c3ccc([N+](=O)[O-])cc3)nc3c(Cl)cc(Cl)cc3c2=O)cc1 [Compound 41, (E)-4-(6,8-dichloro-2-(4-nitrostyryl)-4-oxoquinazolin-3(4H)-yl)benzoic acid]
GluR1/NR2D: (IC50 GluR1)/(IC50 NR2D) [3]: >50
NR2A/NR2D: (IC50 NR2A)/(IC50 NR2D) [3]: >50

O=C(O)c1ccc(-n2c(/C=C/c3cccc([N+](=O)[O-])c3)nc3ccc(F)cc3c2=O)cc1 [Compound 42, (E)-4-(6-fluoro-2-(3-nitrostyryl)-4-oxoquinazolin-3(4H)-yl)benzoic acid]
IC50 [1]: 14 µM

COc1ccc2nc(/C=C/c3cccc([N+](=O)[O-])c3)n(-c3ccc(C(=O)O)cc3)c(=O)c2c1 [Compound 46, (E)-4-(6-methoxy-2-(3-nitrostyryl)-4-oxoquinazolin-3(4H)-yl)benzoic acid]
effect on GluR6 responses [4]: No significant effect
selectivity for NR2C/D (NR2D) over NR2A/B [3]: > 50 fold

O=C(O)c1ccc(-n2c(/C=C/c3cccc([N+](=O)[O-])c3)nc3ccc(-c4ccccc4)cc3c2=O)cc1 [Compound 49, (E)-4-(2-(3-nitrostyryl)-4-oxo-6-phenylquinazolin-3(4H)-yl)benzoic acid]
response at saturating concentration, NR2A (fitted minimum) [5]: 68 % of control
response at saturating concentration, NR2C (fitted minimum) [1]: 22 % of control
response at saturating concentration, NR2B (fitted minimum) [6]: 51 % of control
response at saturating concentration, NR2D (fitted minimum) [3]: 14 % of control

O=C(O)c1ccc(-n2c(/C=C/c3cccc([N+](=O)[O-])c3)nc3cc4ccccc4cc3c2=O)cc1 [Compound 50, (E)-4-(2-(3-nitrostyryl)-4-oxobenzo[g]quinazolin-3(4H)-yl)benzoic acid]
response at saturating concentration, NR2A (fitted minimum) [5]: 68 % of control
response at saturating concentration, NR2C (fitted minimum) [1]: 26 % of control
response at saturating concentration, NR2B (fitted minimum) [6]: 50 % of control
response at saturating concentration, NR2D (fitted minimum) [3]: 20 % of control

O=C(O)c1ccc(-n2c(/C=C/c3cccc([N+](=O)[O-])c3)nc3cc4c(cc3c2=O)OCO4)cc1 [Compound 52, (E)-4-(6-(3-nitrostyryl)-8-oxo-[1,3]dioxolo[4,5-g]quinazolin-7(8H)-yl)benzoic acid]
GluR1/NR2D: (IC50 GluR1)/(IC50 NR2D) [3]: >8

COc1ccc2nc(/C=C/c3cccc(C(=O)O)c3)n(-c3ccc(C(=O)O)cc3)c(=O)c2c1 [Compound 62, (E)-3-(2-(3-(4-carboxyphenyl)-6-methoxy-4-oxo-3,4-dihydroquinazolin-2-yl)vinyl)benzoic acid]
GluR1/NR2D: (IC50 GluR1)/(IC50 NR2D) [3]: >2
NR2A/NR2D: (IC50 NR2A)/(IC50 NR2D) [3]: >2

COc1ccc2nc(/C=C/c3ccc(OC(C)=O)c(OC(C)=O)c3)n(-c3ccc(C(=O)O)cc3)c(=O)c2c1 [Compound 64, (E)-4-(2-(3,4-diacetoxystyryl)-6-methoxy-4-oxoquinazolin-3(4H)-yl)benzoic acid]
IC50 [5]: > 300 µM
IC50 [1]: 124 µM
IC50 [6]: > 300 µM
IC50 [2]: > 300 µM
IC50 [3]: 52 µM
GluR1/NR2D: (IC50 GluR1)/(IC50 NR2D) [3]: >6
NR2A/NR2D: (IC50 NR2A)/(IC50 NR2D) [3]: >6

N#Cc1ccc(/C=C/c2nc3ccccc3c(=O)n2-c2ccc(C(=O)O)cc2)cc1 [Compound 66]
GluR1/NR2D: (IC50 GluR1)/(IC50 NR2D) [3]: >9

C=CCOc1ccc(/C=C/c2nc3ccccc3c(=O)n2-c2ccc(C(=O)O)cc2)cc1 [Compound 69]
GluR1/NR2D: (IC50 GluR1)/(IC50 NR2D) [3]: >10
NR2A/NR2D: (IC50 NR2A)/(IC50 NR2D) [3]: >10

O=C(O)c1ccc(-n2c(/C=C/c3ccc([N+](=O)[O-])cc3)nc3ccc(I)cc3c2=O)cc1 [Compound 72, (E)-4-(6-iodo-2-(4-nitrostyryl)-4-oxoquinazolin-3(4H)-yl)benzoic acid]
effect on GluR6 responses [4]: No significant effect
response at saturating concentration, NR2C (fitted minimum) [1]: 31 % of control
solubility [7]: 10 µM (≈ 5.39 µg/mL)
response at saturating concentration, NR2D (fitted minimum) [3]: 26 % of control
GluR1/NR2D: (IC50 GluR1)/(IC50 NR2D) [3]: >220

O=C(O)c1cccc(-n2c(/C=C/c3ccc([N+](=O)[O-])cc3)nc3ccc(I)cc3c2=O)c1 [Compound 73, (E)-3-(6-iodo-2-(4-nitrostyryl)-4-oxoquinazolin-3(4H)-yl)benzoic acid]
GluR1/NR2D: (IC50 GluR1)/(IC50 NR2D) [3]: >37
NR2A/NR2D: (IC50 NR2A)/(IC50 NR2D) [3]: >37

COc1ccc2nc(/C=C/c3ccc([N+](=O)[O-])cc3)n(-c3ccc(C(=O)O)cc3)c(=O)c2c1 [Compound 75, (E)-4-(6-methoxy-2-(4-nitrostyryl)-4-oxoquinazolin-3(4H)-yl)benzoic acid]
GluR1/NR2D: (IC50 GluR1)/(IC50 NR2D) [3]: >42

COc1ccc2nc(/C=C/c3ccc([N+](=O)[O-])cc3)n(-c3cccc(C(=O)O)c3)c(=O)c2c1 [Compound 76, (E)-3-(6-methoxy-2-(4-nitrostyryl)-4-oxoquinazolin-3(4H)-yl)benzoic acid]
GluR1/NR2D: (IC50 GluR1)/(IC50 NR2D) [3]: >19

Cc1nc2ccc(I)cc2c(=O)n1-c1ccc(C(=O)O)cc1 [Compound 78, 4-(6-Iodo-2-methyl-4-oxoquinazolin-3(4H)-yl)benzoic acid]
inhibitory activity ([3]; concentrations up to 100 μM): total loss of inhibitory activity

Cc1ccc2nc(CCc3ccccc3)n(-c3ccc(C(=O)O)cc3)c(=O)c2c1 [Compound 81, 4-(6-Methyl-4-oxo-2-phenethylquinazolin-3(4H)-yl)benzoic acid]
potency reduction on saturating the styryl linker (81 vs 80) [3]: 10 fold

O=C(O)c1ccc(-n2c(/C=C/c3ccc4ccccc4c3)nc3ccccc3c2=O)cc1 [Compound 82]
GluR1/NR2D: (IC50 GluR1)/(IC50 NR2D) [3]: >50

O=C(O)c1ccc(-n2c(/C=C/c3ccc4c(c3)OCCO4)nc3ccccc3c2=O)cc1 [Compound 86]
GluR1/NR2D: (IC50 GluR1)/(IC50 NR2D) [3]: >18
NR2A/NR2D: (IC50 NR2A)/(IC50 NR2D) [3]: >18

COc1cccc(-n2c(/C=C/c3cccnc3)nc3ccc(I)cc3c2=O)c1 [Compound 90]
IC50 [3]: 200 µM

(E)-4-(6,7-dimethoxy-2-(3-nitrostyryl)-4-oxoquinazolin-3(4H)-yl)benzoic acid [Compound 63]
GluR1/NR2D: (IC50 GluR1)/(IC50 NR2D) [3]: 7

From publication PMC2920070 (Journal of medicinal chemistry, 2010)
